PubChem BioAssay AID1963870 (Molecular Pharmacology Branch, DTP, NCI, 2024)
pIC50: −log10 of the molar value. Values joined by “and” are separate entries in the source; they are usually repeats but may differ in a detail not shown here. Identical values can stand only once.

Tested on: 292921-168-R-J2-PDC KRAS tumor spheroid viability
Test: Anticancer human tumor 292921-168-R-J2-PDC patient-derived pancreatic carcinoma cell line growth inhibition [KRAS2]
Settings: spheroids with HUVEC and MSC; for viability, T/C: stronger effect = lower value
Source text: Multicellular complex tumor spheroid response to RAS pathway inhibitors in combination with a targeted agents in patient-derived cell lines with oncogenic KRAS variants from multiple cancer types
A high-throughput screen of multi-cell type tumor spheroids was designed to identify active combinations of targeted small molecules and KRAS pathway inhibitors. Complex spheroids include a stromal component modeled by human endothelial cells (HUVEC) and fibroblasts modeled by human mesenchymal stem cells (MSCs). The concentration ranges selected for each drug and investigational agent were based upon clinically achievable concentrations if the clinical Cmax of the agent was known.
Compounds. The drugs and investigational agents: BI-3406 (NSC825286), BAY-293 (NSC824723), batoprotafib (TNO155; NSC825523), sotorasib (AMG 510; NSC818433), MRTX1257 (NSC819558), elimusertib (BAY 1895344; NSC800525), molibresib (GSK525762; NSC774829), temuterkib (LY3214996; NSC803410), venetoclax (NSC766270), alisertib (NSC759677), olaparib (NSC753686), talazoparib (NSC767125), erdafitinib (NSC781556), ipatasertib (NSC767898), cabozantinib (NSC761068), nintedanib (NSC756659), abemaciclib (NSC768073), docetaxel (NSC628503), trametinib (NSC758246), and sapanisertib (NSC764658) were obtained from the National Cancer Institute (NCI) Developmental Therapeutics Program Chemical Repository. The FDA-approved anticancer drug set is available from the Developmental Therapeutics Program. […] The stock solutions were prepared in dimethyl sulfoxide (DMSO, Sigma-Aldrich, St. Louis, MO, cat. D2650) at 800-fold the tested concentration and stored at -70 degrees C prior to their use. All drugs and investigational agents were tested over a range starting from a high concentration at or near the clinical Cmax and decreasing in half-log increments. If the clinical Cmax for an agent had not been determined, the highest concentration tested was 10 microM.
Cell Culture. All cells were maintained in an incubator at 37 degrees C and 5% CO2 with 95% humidity. The PDC lines were cultured according to standard operating procedures established by the NCI PDMR (https://pdmr.cancer.gov/sops/default.htm). Briefly, all PDCs were thawed and cultured in Matrigel-coated flasks prepared with a working solution of 1X Ham's F-12 nutrient mix, without supplementation (Invitrogen, Waltham, MA, cat. 11765054), 100 U/mL penicillin-streptomycin (Invitrogen, cat. 15140122), and 2.5% Matrigel (Corning Inc., Corning, NY, cat. 354248) for the first three passages. All PDCs were cultured in complete DMEM/F-12 media containing advanced DMEM/F-12 (Invitrogen, cat. 12634028), 4.9% defined fetal bovine serum, heat inactivated (HyClone Laboratories Inc., Logan, UT, cat. SH30070.03HI), 389 ng/mL hydrocortisone (Sigma-Aldrich, cat. H4001), 9.7 ng/mL human EGF recombinant protein (Invitrogen, cat. PHG0313), 23.4 microg/mL adenine (Sigma-Aldrich, cat. A2786), 97.3 U/mL penicillin-streptomycin (Invitrogen, cat. 15140122), 1.9 mM L-glutamine (Invitrogen, cat. 25030081), and 9.7 microM Y-27632 dihydrochloride (Tocris Bioscience, Bristol, United Kingdom, cat. 1254). The PDCs were cultured in complete DMEM/F12 media without 9.7 microM Y-27632 dihydrochloride for at least two passages prior to the screen. The established cell line HOP-62 was cultured in RPMI 1640 medium, HEPES (Invitrogen, cat. 22400105) with 10% defined fetal bovine serum (HyClone Laboratories Inc., cat. SH30070.03) and 2 mM L-glutamine (Invitrogen, cat. 25030081). The pooled donor HUVEC were cultured in endothelial cell growth medium 2 (PromoCell, Heidelberg, Germany, cat. C-22011) and the hMSC were cultured in mesenchymal stem cell growth medium 2 (PromoCell, cat. C-28009). For all experiments, HUVEC and hMSC were used at passages </=5, while the malignant cell lines were used at passages </=15. […]

[1] = compound alone, run of 08/26/2021
[2] = compound alone, run of 09/02/2021
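Note: drug exposure lasted seven days after spheroids formed for three days.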
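Throughout, for viability, T/C: percent of DMSO vehicle control viability which is 100%.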

Compound	IC50 [1]	IC50 [2]	viability, T/C (compound 0.0001 µM)	viability, T/C (compound 0.000316 µM)	viability, T/C (compound 0.001 µM)	viability, T/C (compound 0.00316 µM)	viability, T/C (compound 0.01 µM)	viability, T/C (compound 0.0316 µM)	IC50 (curve of compound)	viability, T/C (compound 0.1 µM)	viability, T/C (compound 0.316 µM)	viability, T/C (compound 1 µM)	viability, T/C (compound 3.16 µM)	pIC50 (curve of compound)	viability, T/C (compound 10 µM)
C=CC(=O)N1CCN(c2nc(=O)n(-c3c(C)ccnc3C(C)C)c3nc(-c4c(O)cccc4F)c(F)cc23)C(C)C1 (stereo unspecified)	5.55 µM [middle of 5 runs]	5.47 µM [middle of 6 runs]													
CC(=O)Nc1cccc(-n2c(=O)n(C3CC3)c(=O)c3c(Nc4ccc(I)cc4F)n(C)c(=O)c(C)c32)c1			73.6% [middle of 5 runs]	51.5% [middle of 5 runs]	28.9% [middle of 5 runs]	17.8% [middle of 5 runs]	12.7% [middle of 5 runs]	8.87% [middle of 4 runs]	0.328 nM [middle of 5 runs]						
CC(=O)OC12COC1CC(O)C1(C)C(=O)C(O)C3=C(C)C(OC(=O)C(O)C(NC(=O)OC(C)(C)C)c4ccccc4)CC(O)(C(OC(=O)c4ccccc4)C21)C3(C)C (stereo unspecified)							14.3% [middle of 5 runs]	14.3% [middle of 5 runs]		12.4% [middle of 5 runs]	12.8% [middle of 5 runs]	13.8% [middle of 5 runs]	17.6% [middle of 5 runs]	> 8.00	
CC(C)NCC(C(=O)N1CCN(c2ncnc3c2C(C)CC3O)CC1)c1ccc(Cl)cc1 (stereo unspecified)								93.8% [middle of 5 runs]		88.5% [middle of 5 runs]	83.5% [middle of 5 runs]	83.1% [middle of 5 runs]	76.5% [middle of 5 runs]	< 5.00 and 5.01	51.1% [middle of 5 runs]
CC(C)n1nc(-c2ccc3oc(N)nc3c2)c2c(N)ncnc21					61.9% [middle of 5 runs]	48.2% [middle of 5 runs]	35.1% [middle of 5 runs]	27.3% [middle of 5 runs]	2.46 nM [middle of 5 runs]	22.6% [middle of 5 runs]					
CC1(C)CCC(CN2CCN(c3ccc(C(=O)NS(=O)(=O)c4ccc(NCC5CCOCC5)c([N+](=O)[O-])c4)c(Oc4cnc5[nH]ccc5c4)c3)CC2)=C(c2ccc(Cl)cc2)C1								102% [middle of 5 runs]	2.17 µM [middle of 4 runs]	98.2% [middle of 5 runs]	95.9% [middle of 5 runs]	100% [middle of 5 runs]	27.2% [middle of 5 runs]		10.3% [middle of 5 runs]
CC1COCCN1c1cc(-c2ccnn2C)c2ccnc(-c3ccn[nH]3)c2n1 (stereo unspecified)							48% [middle of 5 runs]	23.6% [middle of 5 runs]		16.1% [middle of 5 runs]	14.2% [middle of 5 runs]	14.4% [middle of 5 runs]	16% [middle of 5 runs]	> 8.00	
CC1OCC2(CCN(c3cnc(Sc4ccnc(N)c4Cl)c(N)n3)CC2)C1N (stereo unspecified)	696 nM [middle of 5 runs]	524 nM [middle of 5 runs]						86.4% [middle of 4 runs]	619 nM [middle of 5 runs]						
CCN1CCN(Cc2ccc(Nc3ncc(F)c(-c4cc(F)c5nc(C)n(C(C)C)c5c4)n3)nc2)CC1						88.5% and 85.8% and 83.2%	72.1% and 73% and 63.1%	57.3% and 49.2% and 53%		36.8% and 43.1% and 36.2%	28.3% and 34.9% and 27.1%	17.8% and 23.3% and 20.6%		7.33 and 7.32 and 7.49	
CCNC(=O)CC1N=C(c2ccc(Cl)cc2)c2cc(OC)ccc2-n2c(C)nnc21 (stereo unspecified)								97.6% and 105% (2×)		101% and 90.5% and 99.3%	68.9% and 65.5% and 77.4%	61.3% and 61.7% and 65.3%	55.7% and 53.3% and 49.1%	< 5.00 and 5.53 and 5.32	47.1% and 38.7% and 48.1%
CN(C)C/C=C/C(=O)Nc1cc2c(Nc3ccc(F)c(Cl)c3)ncnc2cc1O[C@H]1CCOC1				101% [middle of 5 runs]	101% [middle of 5 runs]	85.6% [middle of 5 runs]	82.7% [middle of 5 runs]	75.9% [middle of 5 runs]		70.9% [middle of 5 runs]				< 7.00	
CNCc1ccccc1-c1csc(C(C)Nc2nc(C)nc3cc(OC)c(OC)cc23)c1 (stereo unspecified)	1.28 µM [middle of 5 runs]	1.34 µM [middle of 5 runs]									88.7% [middle of 16 runs]				0.15% [middle of 14 runs]
COC(=O)c1ccc2c(C(=Nc3ccc(N(C)C(=O)CN4CCN(C)CC4)cc3)c3ccccc3)c(O)[nH]c2c1													6.78% [middle of 5 runs]		0.34% [middle of 5 runs]
COc1cc(Nc2ncc3c(n2)-c2ccc(Cl)cc2C(c2c(F)cccc2OC)=NC3)ccc1C(=O)O								30.3% [middle of 5 runs]		28% [middle of 5 runs]	30.6% [middle of 5 runs]	28.6% [middle of 5 runs]	23.7% [middle of 5 runs]	> 7.50	17.8% [middle of 5 runs]
COc1cc(OC)cc(N(CCNC(C)C)c2ccc3ncc(-c4cnn(C)c4)nc3c2)c1								72.9% [middle of 5 runs]	2.48 µM [middle of 5 runs]	77.1% [middle of 5 runs]	77.7% [middle of 5 runs]	69.4% [middle of 5 runs]	45.9% [middle of 5 runs]		0.9% [middle of 5 runs]
COc1cc2nccc(Oc3ccc(NC(=O)C4(C(=O)Nc5ccc(F)cc5)CC4)cc3)c2cc1OC								104% (3×) and 112% and 103%	2.1 µM [middle of 5 runs]	99.3% [middle of 5 runs]	96.6% [middle of 5 runs]		33.9% [middle of 5 runs]		19.6% [middle of 5 runs]
Cn1nccc1Nc1nccc(-c2cc3c(s2)C(C)(C)N(CCN2CCOCC2)C3=O)n1								80.7% [middle of 5 runs]	86 nM [middle of 5 runs]	45.7% [middle of 5 runs]	21.1% [middle of 5 runs]	13.4% [middle of 4 runs]	11.2% [middle of 4 runs]		11.7% [middle of 5 runs]
Cn1ncnc1[C@H]1c2n[nH]c(=O)c3cc(F)cc(c23)N[C@@H]1c1ccc(F)cc1				99.3% [middle of 5 runs]	99.4% [middle of 5 runs]	93.5% [middle of 5 runs]	89.9% [middle of 5 runs]	84.1% [middle of 5 runs]		74.5% [middle of 5 runs]				< 7.00	
O=C(c1cc(Cc2n[nH]c(=O)c3ccccc23)ccc1F)N1CCN(C(=O)C2CC2)CC1								96.3% [middle of 5 runs]	8.55 µM [middle of 5 runs]						46% [middle of 5 runs]
